Measurements: US12083124B2 (Incyte Corporation, priority 2019, dated 2024)
Read-outs that look alike come from different tables or passages of the source.

Legend:
[1] = target: wild-type un-phosphorylated FGFR3 (Homo sapiens, UniProt P22607); assay: FGFR Enzymatic Assay (FRET peptide phosphorylation), FGFR3
Description: (§1) The inhibitor potency of the exemplified compounds was determined in an enzyme discontinuous assay that measures peptide phosphorylation using FRET measurements to detect product formation. Inhibitors were serially diluted in DMSO and a volume of 0.2 μL was transferred to the wells of a 384-well plate. […] Appropriate controls (enzyme blank and enzyme with no inhibitor) were included on the plate. […] The 10 μL/well reaction concentration of the peptide substrate was 500 nM whereas the ATP concentration was maintained near or below the ATP Km. The ATP Km values were pre-determined in a separate series of experiments. The reaction plate was incubated at 25° C. for 1 hr and the reactions were ended with the addition of 5 μL/well of quench solution (50 mM Tris, 150 mM NaCl, 0.5 mg/mL BSA, pH 7.8; 45 mM EDTA, 600 nM staurosporin, with Perkin Elmer Lance Reagents at 3.75 nM Eu-antibody PY20 and 180 nM APC-Streptavidin). The plate was allowed to equilibrate for ˜10 minutes at ambient temperature before scanning on a PheraStar plate reader (BMG Labtech) instrument.
(§2) Either GraphPad prism or XLfit was used to analyze the data. The IC50 values were derived by fitting the data to a four parameter logistic equation producing a sigmoidal dose-response curve with a variable Hill coefficient. Prism equation: Y=Bottom+(Top-Bottom)/(1+10^((Log IC50-X)*Hill slope)); XLfit equation: Y=(A+((B−A)/(1+((X/C)^D)))) where X is the logarithm of inhibitor concentration and Y is the response.
(§3) GraphPad prism3 was used to analyze the data. The IC50 values were derived by fitting the data to the equation for a sigmoidal dose-response with a variable slope. Y=Bottom+(Top-Bottom)/(1+10^((Log IC50-X)*Hill Slope)) where X is the logarithm of concentration and Y is the response.

[2] = target: wild-type un-phosphorylated FGFR4 (Homo sapiens, UniProt P22455); assay: FGFR Enzymatic Assay (FRET peptide phosphorylation), FGFR4
[3] = target: wild-type un-phosphorylated FGFR1 (Homo sapiens, UniProt P11362); assay: FGFR Enzymatic Assay (FRET peptide phosphorylation), FGFR1; conditions: pre-incubated for 4 hours
Sequence of wild-type un-phosphorylated FGFR1 (P11362 22-822): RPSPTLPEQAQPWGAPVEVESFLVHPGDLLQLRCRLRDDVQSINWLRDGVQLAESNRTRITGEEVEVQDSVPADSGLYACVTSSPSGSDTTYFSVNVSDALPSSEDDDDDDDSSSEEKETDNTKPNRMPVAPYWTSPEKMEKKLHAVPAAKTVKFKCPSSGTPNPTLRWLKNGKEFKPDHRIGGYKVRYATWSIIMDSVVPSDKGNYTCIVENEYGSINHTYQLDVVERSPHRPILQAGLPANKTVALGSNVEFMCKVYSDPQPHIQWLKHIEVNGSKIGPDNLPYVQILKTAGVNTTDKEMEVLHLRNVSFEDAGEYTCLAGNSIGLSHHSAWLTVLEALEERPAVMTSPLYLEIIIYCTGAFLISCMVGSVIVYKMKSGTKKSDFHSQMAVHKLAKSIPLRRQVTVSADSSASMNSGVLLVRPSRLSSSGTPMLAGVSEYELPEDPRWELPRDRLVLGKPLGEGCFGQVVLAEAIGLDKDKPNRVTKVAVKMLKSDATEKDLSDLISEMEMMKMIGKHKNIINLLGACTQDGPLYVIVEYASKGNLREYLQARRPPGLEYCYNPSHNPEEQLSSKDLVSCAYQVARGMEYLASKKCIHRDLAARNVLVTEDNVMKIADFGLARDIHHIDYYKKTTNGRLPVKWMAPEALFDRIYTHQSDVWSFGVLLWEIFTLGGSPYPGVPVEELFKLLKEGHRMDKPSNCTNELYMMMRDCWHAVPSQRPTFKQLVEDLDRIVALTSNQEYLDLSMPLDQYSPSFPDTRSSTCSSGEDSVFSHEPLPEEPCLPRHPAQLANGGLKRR
Description: as §1, §2, §3
The data in Table 1 was measured in wild-type un-phosphorylated FGFR1, FGFR2, FGFR3, and FGFR4 proteins.

[4] = target: wild-type un-phosphorylated FGFR2 (Homo sapiens, UniProt P21802); assay: FGFR Enzymatic Assay (FRET peptide phosphorylation), FGFR2
Sequence of wild-type un-phosphorylated FGFR2 (P21802 22-821): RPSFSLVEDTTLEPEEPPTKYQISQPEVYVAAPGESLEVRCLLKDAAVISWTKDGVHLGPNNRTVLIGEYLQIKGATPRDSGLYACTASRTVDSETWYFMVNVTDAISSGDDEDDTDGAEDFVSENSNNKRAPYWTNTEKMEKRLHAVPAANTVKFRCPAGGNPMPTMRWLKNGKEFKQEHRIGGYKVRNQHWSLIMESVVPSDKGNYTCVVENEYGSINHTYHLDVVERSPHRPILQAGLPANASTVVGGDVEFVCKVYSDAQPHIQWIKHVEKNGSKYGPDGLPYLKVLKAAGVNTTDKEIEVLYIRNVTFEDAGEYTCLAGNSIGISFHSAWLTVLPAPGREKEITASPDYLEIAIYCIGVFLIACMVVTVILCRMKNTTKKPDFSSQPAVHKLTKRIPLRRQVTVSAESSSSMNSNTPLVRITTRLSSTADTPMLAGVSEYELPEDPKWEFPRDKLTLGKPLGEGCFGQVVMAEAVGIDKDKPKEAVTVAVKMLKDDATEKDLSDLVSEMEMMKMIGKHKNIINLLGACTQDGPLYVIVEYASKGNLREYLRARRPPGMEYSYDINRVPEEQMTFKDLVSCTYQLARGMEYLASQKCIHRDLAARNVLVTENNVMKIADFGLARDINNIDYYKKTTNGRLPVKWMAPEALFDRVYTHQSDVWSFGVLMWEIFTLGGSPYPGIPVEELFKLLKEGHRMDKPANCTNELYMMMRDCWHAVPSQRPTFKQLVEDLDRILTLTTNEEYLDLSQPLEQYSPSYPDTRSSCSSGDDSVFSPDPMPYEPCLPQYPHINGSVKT

[5] = read-out: FGFR1, wild-type un-phosphorylated FGFR1
[6] = read-out: FGFR4, wild-type un-phosphorylated FGFR4, pre-incubated for 4 hours
[7] = FGFR1, wild-type un-phosphorylated FGFR1

Sequence of wild-type un-phosphorylated FGFR3 (P22607 23-806): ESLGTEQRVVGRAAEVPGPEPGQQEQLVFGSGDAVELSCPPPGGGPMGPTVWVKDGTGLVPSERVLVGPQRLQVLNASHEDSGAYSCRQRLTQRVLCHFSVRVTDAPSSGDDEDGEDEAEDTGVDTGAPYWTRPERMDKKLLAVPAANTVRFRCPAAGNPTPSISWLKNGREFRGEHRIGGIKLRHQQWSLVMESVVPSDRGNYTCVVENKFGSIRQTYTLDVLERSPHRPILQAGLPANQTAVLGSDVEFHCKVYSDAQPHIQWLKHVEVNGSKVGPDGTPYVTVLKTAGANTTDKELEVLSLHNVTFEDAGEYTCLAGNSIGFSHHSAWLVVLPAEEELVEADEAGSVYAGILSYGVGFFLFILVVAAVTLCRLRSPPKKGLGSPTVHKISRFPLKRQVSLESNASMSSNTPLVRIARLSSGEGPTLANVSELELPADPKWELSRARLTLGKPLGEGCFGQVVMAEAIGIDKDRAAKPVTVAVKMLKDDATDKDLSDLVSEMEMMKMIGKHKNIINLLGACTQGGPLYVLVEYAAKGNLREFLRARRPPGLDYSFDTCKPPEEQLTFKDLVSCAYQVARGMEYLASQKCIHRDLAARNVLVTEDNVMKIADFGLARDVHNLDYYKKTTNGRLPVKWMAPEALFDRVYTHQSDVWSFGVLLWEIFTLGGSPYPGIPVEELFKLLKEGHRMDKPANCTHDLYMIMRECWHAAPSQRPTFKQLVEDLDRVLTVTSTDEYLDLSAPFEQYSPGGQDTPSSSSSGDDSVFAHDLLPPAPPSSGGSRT
Sequence of wild-type un-phosphorylated FGFR4 (P22455 22-802): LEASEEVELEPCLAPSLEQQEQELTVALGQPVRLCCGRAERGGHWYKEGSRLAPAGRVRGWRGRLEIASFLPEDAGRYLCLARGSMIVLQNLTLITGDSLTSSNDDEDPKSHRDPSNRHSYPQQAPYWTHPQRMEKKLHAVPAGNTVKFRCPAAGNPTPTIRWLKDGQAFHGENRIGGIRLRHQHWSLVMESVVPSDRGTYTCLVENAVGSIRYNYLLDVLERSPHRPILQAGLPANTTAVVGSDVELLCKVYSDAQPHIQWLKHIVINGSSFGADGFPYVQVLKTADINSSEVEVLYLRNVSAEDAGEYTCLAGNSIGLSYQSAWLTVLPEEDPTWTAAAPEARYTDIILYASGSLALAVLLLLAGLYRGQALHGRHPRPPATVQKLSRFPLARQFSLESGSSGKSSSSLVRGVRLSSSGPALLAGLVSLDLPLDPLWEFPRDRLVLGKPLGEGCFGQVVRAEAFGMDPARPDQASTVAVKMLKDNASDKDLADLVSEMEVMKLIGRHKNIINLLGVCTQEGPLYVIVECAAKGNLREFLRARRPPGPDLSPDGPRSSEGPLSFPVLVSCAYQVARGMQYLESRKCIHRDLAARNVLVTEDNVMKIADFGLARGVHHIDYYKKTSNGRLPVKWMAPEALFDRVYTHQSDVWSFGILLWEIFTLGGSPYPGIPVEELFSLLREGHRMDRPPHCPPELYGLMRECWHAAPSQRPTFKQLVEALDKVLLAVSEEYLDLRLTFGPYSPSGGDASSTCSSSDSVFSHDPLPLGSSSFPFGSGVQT

IC50 [1] [nM] | IC50 [2] [nM] | IC50 [3, 5] [nM] | IC50 [4] [nM] | IC50 [2, 6] [nM] | IC50 [3, 7] [nM] | SMILES
< 6 | 40 to 100 | 6 to 40 | < 6 |  |  | COc1cc2[nH]nc(-c3ccc(C45CC4CN(CCO)C5)cc3)c2nc1-c1cccc2c1CCC2 (stereo not shown) [Example 158, 2-(1-(4-(5-(2,3-Dihydro-1H-inden-4-yl)-6-methoxy-1H-pyrazolo[4,3-b]pyridin-3-yl)phenyl)-3-azabicyclo[3.1.0]hexan-3-yl)ethan-1-ol]
< 6 |  | 6 to 40 | < 6 | 6 to 40 |  | COc1cc2[nH]nc(-c3ccc([C@@]45C[C@@H]4CN(CCO)C5)cc3)c2nc1-c1cccc2c1CCC2C#N (stereo partly drawn) [Example 159, 4-(3-(4-((1R,5S)-3-(2-Hydroxyethyl)-3-azabicyclo[3.1.0]hexan-1-yl)phenyl)-6-methoxy-1H-pyrazolo[4,3-b]pyridin-5-yl)-2,3-dihydro-1H-indene-1-carbonitrile]
< 6 | 40 to 100 |  | < 6 |  | 40 to 100 | COc1cc2[nH]nc(-c3ccc(CN4CCC(O)CC4)nc3)c2nc1-c1cccc2c1CCC2 [Example 160, 1-((5-(5-(2,3-Dihydro-1H-inden-4-yl)-6-methoxy-1H-pyrazolo[4,3-b]pyridin-3-yl)pyridin-2-yl)methyl)piperidin-4-ol]
< 6 | 40 to 100 |  | < 6 |  | 40 to 100 | COc1cc2[nH]nc(-c3ccc(CN4CC5CC4CO5)nc3)c2nc1-c1cccc2c1CCC2 (stereo not shown) [Example 161, 5-((5-(5-(2,3-Dihydro-1H-inden-4-yl)-6-methoxy-1H-pyrazolo[4,3-b]pyridin-3-yl)pyridin-2-yl)methyl)-2-oxa-5-azabicyclo[2.2.1]heptane]
< 6 | > 100 |  | < 6 |  | 40 to 100 | COc1cc2[nH]nc(-c3ccc(C(C)N4CCOCC4)nc3)c2nc1-c1cccc2c1CCC2 (stereo not shown) [Example 162, 4-(1-(5-(5-(2,3-Dihydro-1H-inden-4-yl)-6-methoxy-1H-pyrazolo[4,3-b]pyridin-3-yl)pyridin-2-yl)ethyl)morpholine]
< 6 | 40 to 100 |  | < 6 |  | 40 to 100 | COc1cc2[nH]nc(-c3ccc(CN4CCn5ncnc5C4)nc3)c2nc1-c1cccc2c1CCC2 [Example 163, 7-((5-(5-(2,3-Dihydro-1H-inden-4-yl)-6-methoxy-1H-pyrazolo[4,3-b]pyridin-3-yl)pyridin-2-yl)methyl)-5,6,7,8-tetrahydro-[1,2,4]triazolo[1,5-a]pyrazine]
< 6 |  | 6 to 40 | < 6 | 6 to 40 |  | COc1cc2[nH]nc(-c3ccc(C4(C#N)CCN(C(=O)CO)CC4)nc3)c2nc1-c1cccc2c1CCC2 [Example 165, 4-(5-(5-(2,3-Dihydro-1H-inden-4-yl)-6-methoxy-1H-pyrazolo[4,3-b]pyridin-3-yl)pyridin-2-yl)-1-(2-hydroxyacetyl)piperidine-4-carbonitrile]
< 6 | 40 to 100 |  | < 6 |  | 40 to 100 | COCCN1CCN(c2ccc(-c3n[nH]c4cc(OC)c(-c5cccc(CC#N)c5C)nc34)cn2)CC1 [Example 166, 2-(3-(6-Methoxy-3-(6-(4-(2-methoxyethyl)piperazin-1-yl)pyridin-3-yl)-1H-pyrazolo[4,3-b]pyridin-5-yl)-2-methylphenyl)acetonitrile]
< 6 | 40 to 100 |  | < 6 |  | 40 to 100 | [2H]C1(n2cc(-c3n[nH]c4cc(OC)c(-c5cccc6c5CCC6C#N)nc34)cn2)CCN(C(=O)C2CCOCC2)CC1 (stereo not shown) [Example 167, 4-(6-Methoxy-3-(1-(1-(tetrahydro-2H-pyran-4-carbonyl)piperidin-4-yl-4-d)-1H-pyrazol-4-yl)-1H-pyrazolo[4,3-b]pyridin-5-yl)-2,3-dihydro-1H-indene-1-carbonitrile]
< 6 | 40 to 100 | 6 to 40 | < 6 |  |  | COc1cc2[nH]nc(-c3cnn([C@H]4CCN(C(=O)[C@@H]5CCCO5)C4)c3)c2nc1-c1cccc2c1CCC2C#N (stereo partly drawn) [Example 169, 4-(6-Methoxy-3-(1-((S)-1-((S)-tetrahydrofuran-2-carbonyl)pyrrolidin-3-yl)-1H-pyrazol-4-yl)-1H-pyrazolo[4,3-b]pyridin-5-yl)-2,3-dihydro-1H-indene-1-carbonitrile]
< 6 |  | 6 to 40 | < 6 | 6 to 40 |  | COc1cc2[nH]nc(-c3ccc(N4CCN5C[C@H](O)C[C@H]5C4)nc3)c2nc1-c1cccc2c1CCC2 [Example 170, (7R,8aS)-2-(5-(5-(2,3-Dihydro-1H-inden-4-yl)-6-methoxy-1H-pyrazolo[4,3-b]pyridin-3-yl)pyridin-2-yl)octahydropyrrolo[1,2-a]pyrazin-7-ol]
< 6 |  | 6 to 40 | < 6 | 6 to 40 |  | COc1cc2[nH]nc(-c3ccc(N4CC(N(C)C(=O)CO)C4)nc3)c2nc1-c1cccc2c1CCC2 [Example 171, N-(1-(5-(5-(2,3-Dihydro-1H-inden-4-yl)-6-methoxy-1H-pyrazolo[4,3-b]pyridin-3-yl)pyridin-2-yl)azetidin-3-yl)-2-hydroxy-N-methylacetamide]
< 6 | 40 to 100 |  | < 6 |  | 40 to 100 | COc1cc2[nH]nc(-c3ccc(C4CN(C(=O)C5CCCO5)C4)nc3)c2nc1-c1cccc2c1CCC2 (stereo not shown) [Example 172, (3-(5-(5-(2,3-Dihydro-1H-inden-4-yl)-6-methoxy-1H-pyrazolo[4,3-b]pyridin-3-yl)pyridin-2-yl)azetidin-1-yl)(tetrahydrofuran-2-yl)methanone]
< 6 |  | 6 to 40 | < 6 | 6 to 40 |  | COc1cc2[nH]nc(-c3ccc(C4CN(C(=O)[C@@H]5CCCCN5C)C4)nc3)c2nc1-c1cccc2c1CCC2 [Example 173, (S)-(3-(5-(5-(2,3-Dihydro-1H-inden-4-yl)-6-methoxy-1H-pyrazolo[4,3-b]pyridin-3-yl)pyridin-2-yl)azetidin-1-yl)(1-methylpiperidin-2-yl)methanone]
< 6 | 40 to 100 | 6 to 40 | < 6 |  |  | COc1cc2[nH]nc(-c3ccc(C4CN(C(=O)CN(C)C)C4)nc3)c2nc1-c1cccc2c1CCC2 [Example 174, 1-(3-(5-(5-(2,3-Dihydro-1H-inden-4-yl)-6-methoxy-1H-pyrazolo[4,3-b]pyridin-3-yl)pyridin-2-yl)azetidin-1-yl)-2-(dimethylamino)ethan-1-one]
< 6 |  | 6 to 40 | < 6 | 6 to 40 |  | COc1cc2[nH]nc(-c3ccc(C4CN(C(=O)CCO)C4)nc3)c2nc1-c1cccc2c1CCC2 [Example 175, 1-(3-(5-(5-(2,3-Dihydro-1H-inden-4-yl)-6-methoxy-1H-pyrazolo[4,3-b]pyridin-3-yl)pyridin-2-yl)azetidin-1-yl)-3-hydroxypropan-1-one]
< 6 | 40 to 100 | 6 to 40 | < 6 |  |  | COc1cc2[nH]nc(-c3ccc(C4CN(C(=O)CO)C4)nc3)c2nc1-c1cccc2c1CCC2 [Example 176, 1-(3-(5-(5-(2,3-Dihydro-1H-inden-4-yl)-6-methoxy-1H-pyrazolo[4,3-b]pyridin-3-yl)pyridin-2-yl)azetidin-1-yl)-2-hydroxyethan-1-one]
< 6 | 40 to 100 |  | < 6 |  | 40 to 100 | COc1cc2[nH]nc(-c3ccc(C4CN(C(=O)[C@H](C)O)C4)nc3)c2nc1-c1cccc2c1CCC2 [Example 177, (S)-1-(3-(5-(5-(2,3-Dihydro-1H-inden-4-yl)-6-methoxy-1H-pyrazolo[4,3-b]pyridin-3-yl)pyridin-2-yl)azetidin-1-yl)-2-hydroxypropan-1-one]
< 6 |  | 6 to 40 | < 6 | 6 to 40 |  | COc1cc2[nH]nc(-c3ccc(C4CC(N(C)C(=O)CO)C4)nc3)c2nc1-c1cccc2c1CCC2 (stereo not shown) [Example 178, N-(3-(5-(5-(2,3-Dihydro-1H-inden-4-yl)-6-methoxy-1H-pyrazolo[4,3-b]pyridin-3-yl)pyridin-2-yl)cyclobutyl)-2-hydroxy-N-methylacetamide]
< 6 |  | 6 to 40 | < 6 | 6 to 40 |  | [2H]C1(c2ccc(-c3n[nH]c4cc(OC)c(-c5cccc6c5CCC6)nc34)cn2)CN(C(=O)CO)C1 [Example 179, 1-(3-(5-(5-(2,3-Dihydro-1H-inden-4-yl)-6-methoxy-1H-pyrazolo[4,3-b]pyridin-3-yl)pyridin-2-yl)azetidin-1-yl-3-d)-2-hydroxyethan-1-one]
< 6 | 40 to 100 |  | < 6 |  | 40 to 100 | COC(=O)N1CCC(c2ccc(-c3n[nH]c4cc(OC)c(-c5cccc6c5CCC6C#N)nc34)cn2)CC1 (stereo not shown) [Example 180, Methyl 4-(5-(5-(1-Cyano-2,3-dihydro-1H-inden-4-yl)-6-methoxy-1H-pyrazolo[4,3-b]pyridin-3-yl)pyridin-2-yl)piperidine-1-carboxylate]

SMILES | IC50 [1] [nM] | IC50 [2] [nM] | IC50 [3, 5] [nM] | IC50 [4] [nM] | IC50 [2, 6] [nM] | IC50 [3, 7] [nM]
COc1cc2[nH]nc(-c3ccc(C4(C#N)CCN(CCO)CC4)nc3)c2nc1-c1cccc2c1CCC2 [Example 164, 4-(5-(5-(2,3-Dihydro-1H-inden-4-yl)-6-methoxy-1H-pyrazolo[4,3-b]pyridin-3-yl)pyridin-2-yl)-1-(2-hydroxyethyl)piperidine-4-carbonitrile] | < 6 | 40 to 100 |  | < 6 |  | 40 to 100
